Reference: patent US20250032425A1, “FIRST IN CLASS USE OF ESTROGEN RECEPTOR BETA AGONISTS IN TREATING ANGELMAN SYNDROME AND RELEVANT AUTISM SPECTRUM DISORDERS” (BROWN UNIVERSITY, priority 2023, published 2025)
Entries after “also recorded” stand apart in the source; their conditions may differ.

Legend:
[1] = tested on: iOPCs expressing Cas9 and a sgRNA targeting UBE3A; experiment: EdU incorporation in iOPCs with CRISPR/Cas9 UBE3A depletion (Lenti-sgUBE3A #1-3); type: cell-based, human; settings: 10 μM; any of the sgRNAs
Experimental: The sgRNAs targeting UBE3A, and negative control were obtained from Applied Biological Materials Inc. Targeting sgRNA sequences against UBE3A are: sgRNA1, […]; sgRNA2, […]; sgRNA3, […]. These sgRNAs were integrated into the backbone of the negative control pLenti-U6-sgRNA-SFFV-Cas9-2A-Puro. All constructs were packaged into lentiviruses and concentrated by Lenti-X Concentrator (Takara Bio #631231). In each experiment, 5-10 μl of concentrated virus was administered into ˜70% confluent iOPCs cultures in 6-well plates. One day post-lentiviral transduction, iOPC cultures were treated with approximately 5 μg/ml Puromycin to isolate those iOPCs which are expressing Cas9/sgRNAs. Following a day of selection, the iOPCs were then seeded on gelatin-coated coverslips placed in 24-well plates at a density of 100,000 cells per well. After another day allowed for cell stabilization, treatment with either the vehicle control (DMSO), AC-186, DPN, or LY500307 commenced at a standard concentration of 10 μM. A final 24-hour period after this treatment saw the cells exposed to […] for three hours, preparing them for subsequent immunofluorescence staining.
The EdU labeling kit from ThermoFisher Scientific (#C10637) was used to trace cell proliferation by incubating iOPCs with 2 μM EdU for three hours before fixation. Following EdU incorporation, cells were fixed in 4% paraformaldehyde, blocked with normal serum, and stained with primary antibodies, Rabbit anti-Ki67 and Mouse anti-UBE3A. These steps were conducted according to the manual of the labeling kit and also detailed immunofluorescence staining protocols described below, to ensure specific detection of the proliferation marker Ki67 and the ubiquitin-protein ligase UBE3A in the cells for subsequent imaging analysis.

[2] = tested on: rat OPCs with normal UBE3A levels; experiment: Proliferation of rat OPCs with normal UBE3A levels; type: cell-based
UBE3A-deficient iOPCs = experiment: Ki67 (and PCNA) immunoblotting in UBE3A-knockdown iOPCs: compound screen and rescue of proliferation; type: cell-based, human; settings: for EC50: Homo sapiens, iOPCs treated with siUBE3A, Ki67 immunoblotting normalized to siNC plus vehicle, read-out: EC50 for rescue of Ki67 expression; for Ki67 expression (FIG. 19G) / PCNA expression (FIG. 19G): siUBE3A cells, normalized to GAPDH
Experimental: Given the scarcity of knowledge regarding UBE3A function in oligodendrocyte biology, a comprehensive exploration of various cellular functions was performed, leveraging the high-throughput capabilities of the iPSC-based methodology (e.g., as described herein). We selected over 45 compounds with known targeted cellular actions (Table 1). These were chosen based on their documented effects on UBE3A, their ability to promote oligodendrocyte development and myelination, or their protective 10 roles in neural tissue. UBE3A expression was modulated using siRNA, achieving a controlled reduction that decreased OPC proliferation by approximately 50%, as evidenced by Ki67 protein levels.
iPSC Culturing and Generation of Induced Human Brain Cells Including Oligodendroglia, Neurons (IN), Astrocytes (iAs) and Microglia (iMG) The generation of iPSC-derived human oligodendrocyte precursor cells (iOPCs) was carried out according to a previously published protocol by Vulakh and Yang et al., 2023 (Characterizing the Neuron-Glial Interactions by the Co-cultures of Human iPSC-Derived Oligodendroglia and Neurons. Methods Mol. Biol. 2683), which itself was a modification of an earlier protocol by Assetta et al., 2020 (Generation of Human Neurons and Oligodendrocytes from Pluripotent Stem Cells for Modeling Neuron-Oligodendrocyte Interactions. J Vis Exp.). The process began with the control iPSCs, which is a well-characterized control reference line acquired from the NIH-funded iPSC Neurodegenerative Disease Initiative (INDI, (Ramos, D. M., Skarnes, W. C., Singleton, A. B., Cookson, M. R., and Ward, M. E. (2021). Tackling neurodegenerative diseases with genomic engineering: A new stem cell initiative from the NIH. Neuron 109, 1080-1083. 10.1016/j.neuron.2021.03.022)), distributed by the Jackson Laboratory. These iPSCs were maintained in mTeSR plus medium (StemCell Technologies, #05825) and expanded in Stem Flex medium (Fisher Scientific. #A3349401) for the induction of neural progenitor cells (INPC). The iNPCs were derived by treating iPSCs with a commercial SMAD inhibitor medium (StemCell Technologies, #08582) for 7 days (Week 1). Subsequently, NPCs were further induced to become OPCs by a 7-day incubation (Week 2) with a chemically-defined OPC medium: DMEM/F12 medium (Thermo Fisher, #11320033) supplemented by 10 ng/ml PDGF-AA (R&D Systems, #221-AA-025), 1 μM SAG (Tocris, #4366), […] N-Acetyl-Cysteine (Millipore Sigma, #A9165-5G), 20 ng/mL bFGF (R&D Systems, #233-FB-025/CF), 1% N2 supplement (Thermo Fisher, #17502048), and 1% B27 supplement (Thermo Fisher, #17504044). […] The additional incubation with OL medium for 7-14 days (Week 4-5) yielded mature, myelinating OLs.
The siRNAs targeting UBE3A (Thermo Fisher, #4390815 and #4390816), estrogen receptors (Thermo Scientific #145909 for ESRβ, #145539 for ESRα, and #4390824 for GPER), and negative control (Thermo Scientific, #AM4615) were obtained commercially. The 10-20 nM final concentration was used with Lipofectamine RNAiMAX transfection reagent (Thermo Scientific #13778075) and incubated for at least 48 hours before the treatments of therapeutic compounds or other reagents.
Cells were collected by fast spin down in centrifuge tubes before lysis in RIPA buffer (ThermoFisher, #89901) supplemented with proteinase inhibitor cocktail (Sigma-Aldrich, #5892791001) on ice. Lysates were then spun down at 15000 rpm for 10 mins, the supernatant was collected and mixed with 4× Laemmle sample buffer (Bio-Rad, #1610747) and cooked 10 mins before SDS-PAGE and transferred with Bio-Rad fast transfer system, the membranes were blocked for one hour in 1× Tris Buffered Saline (TBS) with 1% Casein buffer (Bio-Rad, #1610782) and incubated with primary antibodies overnight at 4 degrees. […]

SMILES	number of EdU+ cells [1]	effect on OPCs with normal UBE3A levels [2]	impact of UBE3A loss on OPC proliferation (FIG. 18F, 19G) (UBE3A-deficient iOPCs; ERβ activators of different structural classes)	EC50 (UBE3A-deficient iOPCs; 24 hours)	Ki67 expression (FIG. 19G) (UBE3A-deficient iOPCs; 10 μM, 24 hours)	PCNA expression (FIG. 19G) (UBE3A-deficient iOPCs; 10 μM, 24 hours)	restoration of Ki67 expression in compound screen (UBE3A-deficient iOPCs; 10 μM, 24 hours, Ki67 immunoblotting normalized to siNC=1.0)
N#CC(Cc1ccc(O)cc1)c1ccc(O)cc1 (stereo not drawn) [DPN, diarylpropionitrile, reference compound]	increased the number of EdU+ cells	neither AC-186 nor DPN affected	similarly mitigated the impact of UBE3A loss on OPC proliferation	~19 nM	increased expression	increased expression	
Oc1ccc(C2(c3ccccc3F)CCC(F)(F)CC2)cc1 [AC-186]	increased the number of EdU+ cells	neither AC-186 nor DPN affected		~16 nM	increased expression	increased expression	restored; also recorded: effectively normalized proliferation levels; also recorded: Statistically significant; also recorded: capable of restoring Ki67 expression
